The values that follow come from patent publication US10077284B2, “UBA5 inhibitors” (THE GOVERNING COUNCIL OF THE UNIVERSITY OF TORONTO, priority 2014, dated 2018).

Where “and” joins values, the source holds several entries; their conditions need not be identical. Identical values can stand only once.

Data set [1] relates to UFM1 conjugation in K562 cells. The note with it: K562, increasing concentrations, 72 h. How it is done:
(§1) Cells were washed twice with cold PBS and protein extracts were prepared using RIPA buffer with a protease and phosphatase inhibitor cocktail (Roche #11836153001, #04906845001). Protein concentrations were determined using the BCA protein quantification technique (BCA Protein assay kit, Pierce). In each assay, 30 μg of whole cell protein extract was resolved on a 10% SDS-polyacrylamide gel and transferred to a PVDF membrane (Bio-Rad). The membranes were blocked with SuperBlock (Thermo scientific; No. 37515) for at least 1 hr followed by an overnight incubation in primary antibody. Blots were probed with antibodies against UBA5 (abcam; ab109227) and UFM-1 (abcam; ab09305) in a 1:1000 dilution, and anti-β-actin (1:5000 dilution; Cell Signaling, 3700S) was used as a loading control. […] The bands were visualized and analyzed using Image lab software (Bio-Rad).
(§2) The intracellular inhibition of UBA5 was evaluated in order to investigate its use as a molecular tool to study cellular UFMylation by UBA5 inactivation. […] The graphical representation of the intracellular inhibition of UFM1 protein conjugation (evaluated using Western Blot analysis, described in detail within the Materials and Methods submitted in May 2014) is shown in FIG. 26. […]

The subject of data set [2] is UFM1 conjugation in Sk-Luci6 cells. The note with it: Sk-Luci6, increasing concentrations, 72 h. The procedure: as §1, §2
A further data set addresses UBA5 (Homo sapiens, UniProt Q9GZZ9). The note with it: in the presence of 1.5.Zn (5 μM). The procedure: Initial rates were recorded over 30 second time intervals from 0 to 2.5 min (normal kinetics) or 0 to 5 min (inhibition kinetics). Reactions were initiated by the addition of ATP and stopped using 4× Laemmli sample buffer (BioRad). The generated protein conjugates were separated on a 10% […] SDS-polyacrylamide gel (4-15% gels were used for the UAE transthiolaton assay), followed by Western blot analysis, with the exception of GST-UBA5 where protein bands were detected using Coomassie™ Brilliant Blue R-250 staining or Stain-Free gel imaging for the enzymatic assays (Bio-Rad). Transfers for the UAE and NAE immunoblots were performed using nitrocellulose membranes and blocking and blotting was performed as described above with cellular protein extracts. The His6-tagged Ub-UBCH6 complex was detected using an anti-His mouse monoclonal primary antibody (1:500, abcam). A rabbit anti-NEDD8 polyclonal primary antibody (1:500, BostonBiochem) was used for the detection of the E2-NEDD8 complexes. […] Inhibitory data was fit to a dose-response curve (Y=Bottom+(Top−Bottom)/(1+10^(X-Log IC50))) using GraphPad Prism 6.
Concentrations of UBA5 (1 μM), UFM1 (10 μM), and UFC1 (10 μM) were held constant, while the concentration of ATP was varied from 0 to 1 mM. […] Protein concentrations were held constant as in (A), and concentrations of ATP were varied from 0 to 1 mM (n=3). […]

Data set [3] concerns NEDD8 downstream protein labeling in A549 cells. The note with it: A549, increasing concentrations. How it is done:
(§3) Cells were washed twice with cold PBS and protein extracts were prepared using RIPA buffer with a protease and phosphatase inhibitor cocktail (Roche #11836153001, #04906845001). Protein concentrations were determined using the BCA protein quantification technique (BCA Protein assay kit, Pierce). In each assay, 30 μg of whole cell protein extract was resolved on a 10% SDS-polyacrylamide gel and transferred to a PVDF membrane (Bio-Rad). The membranes were blocked with SuperBlock (Thermo scientific; No. 37515) for at least 1 hr followed by an overnight incubation in primary antibody. Blots were probed with antibodies against UBA5 (abcam; ab109227) and UFM-1 (abcam; ab09305) in a 1:1000 dilution, and anti-β-actin (1:5000 dilution; Cell Signaling, 3700S) was used as a loading control. Fluorescent labeled secondary antibodies anti-rabbit Alexa Fluor® 647 Conjugate (red, 1:5000) and anti-mouse Alexa Fluor® 488 Conjugate (green, 1:20,000) were used to detect bands (Cell Signaling; 4414S and 4408S, respectively). The bands were visualized and analyzed using Image lab software (Bio-Rad).
(§4) Bands were visualized using anti-rabbit Alexa Fluor® 647 (1:5000, for NEDD8 and NEDD8 conjugates) and anti-mouse Alexa Fluor® 488 (1:20,000, for actin) secondary antibodies.

The subject of data set [4] is NEDD8 downstream protein labeling in Sk-Luci6 cells. The note with it: Sk-Luci6, increasing concentrations. How it is done: as §3, §4
Data set [5] deals with Sk-Luci6, A549 and MRC-9 cells. The note with it: all treated cells.
Excerpt: Confluence of live cells was estimated visually under phase contrast microscopy.
Sk-Luci6, A549 and MRC-9 were each plated as 5×10^3 cells per well and grown in 10% serum on a 96 well plate. […] Cell numbers were obtained at 24 hr time points over a period of 72 hrs using trypan blue exclusion assay (BioRad; #145-0021) and counted using a hemocytometer.
The target of data set [6] is T1, Ub activating enzyme (UAE) (Homo sapiens, UniProt P22314).
T1 construct: purchased Boston Biochem
T1 sequence (P22314 1-1058): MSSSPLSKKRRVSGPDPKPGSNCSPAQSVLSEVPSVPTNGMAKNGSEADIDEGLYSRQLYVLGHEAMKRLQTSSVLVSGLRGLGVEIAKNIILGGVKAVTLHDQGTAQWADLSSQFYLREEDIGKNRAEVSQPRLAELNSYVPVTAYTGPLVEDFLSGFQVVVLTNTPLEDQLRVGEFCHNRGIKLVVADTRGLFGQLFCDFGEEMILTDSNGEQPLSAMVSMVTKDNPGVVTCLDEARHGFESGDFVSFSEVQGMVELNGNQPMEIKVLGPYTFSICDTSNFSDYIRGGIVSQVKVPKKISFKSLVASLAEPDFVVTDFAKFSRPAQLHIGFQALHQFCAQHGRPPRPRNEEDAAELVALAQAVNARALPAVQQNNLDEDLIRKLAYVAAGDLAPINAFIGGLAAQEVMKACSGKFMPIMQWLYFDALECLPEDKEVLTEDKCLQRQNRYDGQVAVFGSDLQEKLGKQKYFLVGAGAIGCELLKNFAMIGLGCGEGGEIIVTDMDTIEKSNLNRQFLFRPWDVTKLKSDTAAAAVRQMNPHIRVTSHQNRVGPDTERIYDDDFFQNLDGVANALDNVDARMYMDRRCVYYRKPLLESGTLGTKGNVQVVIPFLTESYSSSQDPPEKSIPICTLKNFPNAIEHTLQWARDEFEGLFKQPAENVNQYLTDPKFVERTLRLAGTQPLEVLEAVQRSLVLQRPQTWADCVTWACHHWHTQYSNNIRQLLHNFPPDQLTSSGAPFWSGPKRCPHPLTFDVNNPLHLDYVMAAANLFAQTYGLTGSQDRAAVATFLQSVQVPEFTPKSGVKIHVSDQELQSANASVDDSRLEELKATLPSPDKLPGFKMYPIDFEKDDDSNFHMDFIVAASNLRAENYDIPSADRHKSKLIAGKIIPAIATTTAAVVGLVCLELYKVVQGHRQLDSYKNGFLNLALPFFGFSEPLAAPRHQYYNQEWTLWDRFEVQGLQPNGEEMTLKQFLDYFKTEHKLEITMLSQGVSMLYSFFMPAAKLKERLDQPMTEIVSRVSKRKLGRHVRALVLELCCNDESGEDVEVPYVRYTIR
The experiment in a line: UAE transthiolation assay (Ub transfer to His6-UbcH6). Type of data set: biochemical.
Description: Initial rates were recorded over 30 second time intervals from 0 to 2.5 min (normal kinetics) or 0 to 5 min (inhibition kinetics). Reactions were initiated by the addition of ATP and stopped using 4× Laemmli sample buffer (BioRad). The generated protein conjugates were separated on a 10% non-degenerating SDS-polyacrylamide gel (4-15% gels were used for the UAE transthiolaton assay), followed by Western blot analysis, with the exception of GST-UBA5 where protein bands were detected using Coomassie™ Brilliant Blue R-250 staining or Stain-Free gel imaging for the enzymatic assays (Bio-Rad). Transfers for the UAE and NAE immunoblots were performed using nitrocellulose membranes and blocking and blotting was performed as described above with cellular protein extracts. The His6-tagged Ub-UBCH6 complex was detected using an anti-His mouse monoclonal primary antibody (1:500, abcam). A rabbit anti-NEDD8 polyclonal primary antibody (1:500, BostonBiochem) was used for the detection of the E2-NEDD8 complexes. […] Inhibitory data was fit to a dose-response curve (Y=Bottom+(Top−Bottom)/(1+10^(X-Log IC50))) using GraphPad Prism 6.

UBA5, sequence (Q9GZZ9 whole entry): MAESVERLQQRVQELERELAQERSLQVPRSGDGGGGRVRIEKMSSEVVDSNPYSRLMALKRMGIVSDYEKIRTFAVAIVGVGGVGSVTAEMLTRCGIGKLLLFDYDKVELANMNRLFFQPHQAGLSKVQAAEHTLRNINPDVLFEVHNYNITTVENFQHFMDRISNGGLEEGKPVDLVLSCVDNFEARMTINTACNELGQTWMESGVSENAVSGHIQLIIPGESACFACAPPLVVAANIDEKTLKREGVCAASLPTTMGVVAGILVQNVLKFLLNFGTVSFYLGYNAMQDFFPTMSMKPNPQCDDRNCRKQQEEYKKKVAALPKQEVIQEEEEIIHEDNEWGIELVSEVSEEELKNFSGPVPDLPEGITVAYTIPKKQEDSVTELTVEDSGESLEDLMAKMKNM

The term IC50 denotes the concentration needed to halve the response being measured. As to `Nc1ncnc2c1ncn2[C@@H]1O[C@H](C(=O)NCCCCCC(=O)N2CCNCCNCCNCC2)[C@@H](O)[C@H]1O.O=S(=O)([O-])C(F)(F)F.O=S(=O)([O-])C(F)(F)F.[Zn+2]` [Compound 1.5.Zn, (2S,3S,4R,5R)—N-(6-(1,4,7,10-tetraazacyclododecan-1-yl)-6-oxohexyl)-5-(6-amino-9H-purin-9-yl)-3,4-dihydroxytetrahydrofuran-2-carboxamide zinc trifluoromethanesulfonate], the UFMylation levels result in data set [1] and in data set [2] was “Decreased UFMylation levels” in each case. In addition, the VMAX on UBA5 came to 0.988 ± 0.137 pmol/min. The kCAT on UBA5 came to 0.00188 ± 0.000267 s⁻¹. For the same compound, the “intracellular NAE inhibition (NEDD8 labeling)” value in data set [3] and in data set [4] was “no intracellular NAE inhibition” in each case. For the same compound, the cell death entry in data set [5] is “no cell death”. The 50% inhibitory concentration (IC50) in data set [6] (n=3-6) is 76.7 µM and 78.5 µM. The “selectivity for UBA5 over UAE” value in data set [6] (ratio of IC50) was > 20 fold and ~20 fold.
